Like-named read-outs stand apart in the source and are kept apart here.
Tests used:
PCN = conditions: in aqueous solutions or as a solid; cited from earlier work
[1] = cited from earlier work
[2] = system: G. rostochiensis pathotype Ro-1; assay: Interaction of glycoalkaloid dilution series with PRL in hatching assay; format: in vivo; conditions: Fig. 9
Description: To investigate these interactions further, the response of PCN hatch to a dilution series of single natural potato-produced HFs (the glycoalkaloids α-solanine and α-chaconine: Devine, K.J. et al. ((1996) supra) was studied in the presence and absence of a PRL preparation, the concentration of the latter being adjusted to that used in Figs. 4 and 5.
Logarithmic dilution series ([…]) of the glycoalkaloids α-chaconine and α-solanine (Sigma Chemical Co. Poole, UK) were each prepared either in water or PRL (1mg ml^-1). Hatching activity was determined in these dilution series, with PRL (1mg ml^-1) and water as controls.
At each glycoalkaloid concentration, the hatching activity of (glycoalkaloid only), (PRL only) and (glycolalkaloid + PRL) preparations was determined. The difference between the observed hatch (in the presence of (glycoalkaloid only), (PRL only) and (glycoalkaloid + PRL) and the expected hatch if the effects of the glycoalkaloid and PRL were additive, (i.e. (glycoalkaloid only)) + (PRL only) was determined at each concentration of glycoalkaloid. The results are depicted in Fig. 9.

Molecule | concentration at which active (PCN) | optimum concentration (PCN) | stability ([1]; pH below 2 and above 7) | stability ([1]; temperatures above about 35°C) | effect on hatching activity of PRL ([2]; high concentrations of glycoalkaloid, dilution series in PRL (1mg ml^-1)) | effect on hatching activity of PRL ([2]; lower concentrations of glycoalkaloid, over a range of four orders of magnitude)
trans-2-(2-,13-dihydroxy-9-methoxy-7,7,16-trimethyl-5,10,20-trioxo-19-oxahexacyclo [9.7.0.1^3,6.0^3,8.1^12,16]-eicosa-1(11),8-dien-15-yl) cyclopropropanecarboxylic acid [hatching agent] | 0.01 - 1000 mg/kg soil | 1 - 100 mg/kg soil | unstable | unstable |  | 
C[C@H]1CC[C@@H]2[C@@H](C)[C@H]3[C@H](C[C@H]4[C@@H]5CC=C6C[C@@H](O[C@@H]7O[C@H](CO)[C@H](O)[C@H](O[C@@H]8O[C@H](CO)[C@@H](O)[C@H](O)[C@H]8O)[C@H]7O[C@@H]7O[C@@H](C)[C@H](O)[C@@H](O)[C@H]7O)CC[C@]6(C)[C@H]5CC[C@]34C)N2C1 [α-solanine] |  |  |  |  | markedly inhibited | interacted synergistically

From EP1085812B1, “POTATO CYST NEMATODE CONTROLLING FACTORS AND THEIR USE IN AGRICULTURE” (priority 1998, dated 1999)
